Assay results published in article PMC10987639 (2024).

Legend:
[1] = tested on: yjdF riboswitch aptamer domain from R. gauvreauii, P2a loop modified for Fab BL3-6 binding (crystallization construct) (RNA, riboswitch) GGACAAAGAUAAAAACACAACGUAUGGCGAAACACGUCAUACAGAUCCGGUAGGUAGUCCGGACAUAAACAGCGGUAUAAAGCGCUGUUUAUAAGUAACCUUCCUCCUUAGGUCGUCCAUUCUUUGUC; experiment: X-ray crystallography (2.77 Å); details: Mg2+, K+ (PDB ligands; concentrations not in material); co-crystal with Fab BL3-6, potassium osmate(VI) soak, pH 7.5; two ligand orientations
[2] = tested on: yjdF riboswitch aptamer domain from R. gauvreauii, P2a loop modified for Fab BL3-6 binding (crystallization construct) (RNA, riboswitch) GGACAAAGAUAAAAACACAACGUAUGGCGAAACACGUCAUACAGAUCCGGUAGGUAGUCCGGACAUAAACAGCGGUAUAAAGCGCUGUUUAUAAGUAACCUUCCUCCUUAGGUCGUCCAUUCUUUGUC; experiment: X-ray crystallography (3.05 Å); details: Mg2+ (PDB ligand; concentration not in material); co-crystal with Fab BL3-6, pH 7.5; ligand orientation ambiguous

With `COc1ccc2c(c[n+](C)c3c4cc5c(cc4ccc23)OCO5)c1OC` the binding [1] was “yes”.
For `Nc1ccc2cc3ccc(N)cc3nc2c1`, the binding [2] was “yes”.
